Assay results from ChEMBL document CHEMBL1201862, “PubChem BioAssay data set” (2004).
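Assay format: 96-well plates, 48-hour exposure. At the GI50, growth is halved.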 The source made the active and inactive calls. No stated cut-off is given here; in the data, active = GI50 up to about 1.1 µM and inactive = higher.

Assays:
Experiment in all cases: DTP human tumour cell line panel, 48 h
CCRF-CEM = test system: CCRF-CEM
EKVX = test system: EKVX
HL-60 = test system: HL-60
HOP-62 = test system: HOP-62
HT-29 = test system: HT-29
IGROV-1 = test system: IGROV-1
K562 = test system: K562
KM-20L2 = test system: KM-20L2
NCI-H226 = test system: NCI-H226
OVCAR-3 = test system: OVCAR-3
OVCAR-4 = test system: OVCAR-4
RPMI-8226 = test system: RPMI-8226
SF-295 = test system: SF-295
SK-MEL-28 = test system: SK-MEL-28
SK-MEL-5 = test system: SK-MEL-5

Compound | GI50 (CCRF-CEM) | GI50 (EKVX) | GI50 (HL-60) | GI50 (HOP-62) | GI50 (HT-29) | GI50 (IGROV-1) | GI50 (K562) | GI50 (KM-20L2) | GI50 (NCI-H226) | GI50 (OVCAR-3) | GI50 (OVCAR-4) | GI50 (RPMI-8226) | GI50 (SF-295) | GI50 (SK-MEL-28) | GI50 (SK-MEL-5)
COc1cc2cc3c4c(cc(OC)c(OC)c4c2cc1OC)CCN3C(=O)CCC(=O)O | > 100 µM (inactive) | > 100 µM (inactive) | > 100 µM (inactive) | > 100 µM (inactive) | > 100 µM (inactive) | > 100 µM (inactive) | > 100 µM (inactive) | > 100 µM (inactive) | > 100 µM (inactive) | > 100 µM (inactive) | > 100 µM (inactive) | > 100 µM (inactive) | > 100 µM (inactive) | > 100 µM (inactive) | > 100 µM (inactive)
CC(=O)O[C@H]1CC[C@@]2(C)C(=CC[C@@H]3C2CC[C@]2(C)Nc4c(cnn4-c4ccccc4)CC32)C1 (stereo partly drawn) | 5.51 µM (inactive) | 44.6 µM (inactive) | 2.77 µM (inactive) | 12.4 µM (inactive) | 4.82 µM (inactive) | 20.6 µM (inactive) | – | 3.78 µM (inactive) | > 100 µM (inactive) | 48.2 µM (inactive) | 14.9 µM (inactive) | 2.09 µM (inactive) | 2.69 µM (inactive) | 10.4 µM (inactive) | 28.1 µM (inactive)
C=CCOC1CC(n2cnc3c(N)ncnc32)OC1CO (stereo not drawn) | > 100 µM (inactive) | – | > 100 µM (inactive) | > 100 µM (inactive) | > 100 µM (inactive) | > 100 µM (inactive) | > 100 µM (inactive) | > 100 µM (inactive) | > 100 µM (inactive) | > 100 µM (inactive) | > 100 µM (inactive) | > 100 µM (inactive) | > 100 µM (inactive) | > 100 µM (inactive) | > 100 µM (inactive)
COC(=O)CC(C(C(=O)OCc1ccccc1)C(C)O)N1C(=O)OC(c2ccccc2)C1c1ccccc1 (stereo not drawn) | > 100 µM (inactive) | > 100 µM (inactive) | > 100 µM (inactive) | > 100 µM (inactive) | > 100 µM (inactive) | > 100 µM (inactive) | 81.1 µM (inactive) | > 100 µM (inactive) | > 100 µM (inactive) | > 100 µM (inactive) | > 100 µM (inactive) | 62.7 µM (inactive) | 64.6 µM (inactive) | > 100 µM (inactive) | 74 µM (inactive)
Cc1cc(Cl)ccc1NC(=O)C1C(=O)C(=O)N(c2ccc(Cl)cc2C)C1=O (stereo not drawn) | 55.6 µM (inactive) | 36.8 µM (inactive) | > 100 µM (inactive) | > 100 µM (inactive) | 96.2 µM (inactive) | > 100 µM (inactive) | 40.6 µM (inactive) | 48.3 µM (inactive) | 49.8 µM (inactive) | 36.9 µM (inactive) | 38.6 µM (inactive) | 29 µM (inactive) | 95.5 µM (inactive) | > 100 µM (inactive) | > 100 µM (inactive)
NC(CO)c1ccc(OCc2ccccc2)cc1 (stereo not drawn) | 40.6 µM (inactive) | 89.3 µM (inactive) | 24.4 µM (inactive) | > 100 µM (inactive) | > 100 µM (inactive) | > 100 µM (inactive) | > 100 µM (inactive) | > 100 µM (inactive) | > 100 µM (inactive) | > 100 µM (inactive) | > 92.7 µM (inactive) | > 100 µM (inactive) | > 100 µM (inactive) | > 100 µM (inactive) | > 100 µM (inactive)
CCCCCCCC(=O)OCC(COC(=O)C(C)(C)C)OC(=O)Cc1ccccc1 (stereo not drawn) | > 100 µM (inactive) | – | > 100 µM (inactive) | > 100 µM (inactive) | – | > 100 µM (inactive) | > 100 µM (inactive) | > 100 µM (inactive) | > 100 µM (inactive) | 58.3 µM (inactive) | > 100 µM (inactive) | > 100 µM (inactive) | > 100 µM (inactive) | > 100 µM (inactive) | > 100 µM (inactive)
N#C/C(=N\c1ccccc1N(C(=O)c1ccccc1)C(=O)c1ccccc1)c1ccccc1 | 2.25 µM (inactive) | > 100 µM (inactive) | 0.923 µM (active) | > 30.7 µM (inactive) | 15.3 µM (inactive) | 6.67 µM (inactive) | 3.49 µM (inactive) | 9.71 µM (inactive) | > 69.5 µM (inactive) | 8.91 µM (inactive) | 32.2 µM (inactive) | 5.97 µM (inactive) | 8.89 µM (inactive) | > 100 µM (inactive) | 70.8 µM (inactive)
COc1cc2c3c(c1OC)-c1ccccc1C(C(O)c1ccccc1)C3N(C)CC2 (stereo not drawn) | 26.2 µM (inactive) | 90.4 µM (inactive) | 20 µM (inactive) | 24.3 µM (inactive) | 24.7 µM (inactive) | 38.8 µM (inactive) | 25.9 µM (inactive) | 20.1 µM (inactive) | 31 µM (inactive) | 34.8 µM (inactive) | – | 21.9 µM (inactive) | 44.5 µM (inactive) | 16.4 µM (inactive) | 14.4 µM (inactive)
Cc1ccc(NC(=O)/C(C#N)=C/c2ccccc2)c(C)c1 | > 100 µM (inactive) | > 100 µM (inactive) | > 100 µM (inactive) | > 100 µM (inactive) | > 100 µM (inactive) | > 100 µM (inactive) | > 100 µM (inactive) | > 100 µM (inactive) | > 100 µM (inactive) | > 100 µM (inactive) | > 100 µM (inactive) | > 100 µM (inactive) | > 100 µM (inactive) | > 100 µM (inactive) | > 100 µM (inactive)
O=C(Cc1ccc([N+](=O)[O-])c([N+](=O)[O-])c1CC(=O)C(=O)Nc1cc(Cl)ccc1Cl)C(=O)Nc1cc(Cl)ccc1Cl | 17.9 µM (inactive) | > 100 µM (inactive) | > 100 µM (inactive) | > 100 µM (inactive) | > 100 µM (inactive) | > 100 µM (inactive) | 33.5 µM (inactive) | > 100 µM (inactive) | 82.2 µM (inactive) | > 100 µM (inactive) | > 100 µM (inactive) | 28 µM (inactive) | > 100 µM (inactive) | > 100 µM (inactive) | > 100 µM (inactive)
COc1ccc(-c2cc(C(=O)Nc3cccc(C(F)(F)F)c3)nc(S)n2)cc1 | > 100 µM (inactive) | > 100 µM (inactive) | > 100 µM (inactive) | > 100 µM (inactive) | > 100 µM (inactive) | > 100 µM (inactive) | > 100 µM (inactive) | > 100 µM (inactive) | > 100 µM (inactive) | > 100 µM (inactive) | > 100 µM (inactive) | > 100 µM (inactive) | > 100 µM (inactive) | > 100 µM (inactive) | > 100 µM (inactive)
COc1ccc(C(=O)C(c2ccc(OC)cc2)C2C(=O)Oc3ccccc32)cc1 (stereo not drawn) | > 10 µM (inactive) | > 10 µM (inactive) | > 10 µM (inactive) | > 10 µM (inactive) | > 10 µM (inactive) | > 10 µM (inactive) | > 10 µM (inactive) | > 10 µM (inactive) | > 10 µM (inactive) | > 10 µM (inactive) | 5.98 µM (inactive) | > 10 µM (inactive) | > 10 µM (inactive) | > 10 µM (inactive) | > 10 µM (inactive)
COc1c2c(c3c(c1C1OC(C)[C@@H](C)O1)CC(C)(C)O3)C(=O)c1ccccc1C2=O (stereo partly drawn) | 20.8 µM (inactive) | > 100 µM (inactive) | 13.5 µM (inactive) | > 100 µM (inactive) | 31.6 µM (inactive) | > 100 µM (inactive) | 25.4 µM (inactive) | 29.2 µM (inactive) | > 100 µM (inactive) | 38.2 µM (inactive) | 42 µM (inactive) | 20.6 µM (inactive) | 65.2 µM (inactive) | 55.3 µM (inactive) | 56.8 µM (inactive)
COc1ccccc1NC(=O)c1nc2ccc([N+](=O)[O-])cc2nc1C | > 100 µM (inactive) | > 100 µM (inactive) | – | 97.1 µM (inactive) | > 100 µM (inactive) | > 100 µM (inactive) | > 100 µM (inactive) | > 100 µM (inactive) | 99.3 µM (inactive) | > 100 µM (inactive) | > 100 µM (inactive) | > 100 µM (inactive) | – | > 100 µM (inactive) | > 100 µM (inactive)
